The values below come from patent publication US20100022521A1, “COMPOUNDS” (Hansa Metallwerke AG, priority 2005, published 2010).

Molecules are shown by their SMILES.

The target in one test is T1, rat mGluR1 (Rattus norvegicus, UniProt P23385).
T1 construct: rat cerebellar membrane preparation was used; from tissue; host or cells: rat cerebellum (membrane preparation)
Briefly: MGluR1 receptor binding test ([3H]R214127 displacement). The note with it: rat cerebellar membrane; radioligand [3H]R214127 (3 nM); read-out: mGlu1 Ki. The procedure: MGluR1 Receptor Binding Test
MGluR1 receptor binding testes were performed according to modified method of Lavreysen et al. (Mol. Pharm., 2003, 63, 1082). Based on the high homology between the human and rat mGluR1 receptors, rat cerebellar membrane preparation was used to determine the binding characteristics of reference compounds and novel compounds to the rat mGluR1. As radioligand [3H]R214127 (3 nM) was used and the nonspecific binding was determined in the presence of 1 μM of R214127.
IC-50 values were determined from displacement curves by nonlinear regression analysis and were converted by equation method of Cheng and Prusoff (Biochem. Pharmacol., 1973, 22, 3099) to Ki values.

A further test addresses mGluR5 (UniProt P31424). Briefly: MGluR5 receptor binding test ([3H]-M-MPEP displacement). Details: species or system rat. Conditions: radioligand [3H]-M-MPEP (2 nM); species not given; read-out: mGlu5 Ki. The method, then: MGluR5 Receptor Binding Tests
Rat cerebro-cortical membrane preparation was used to determine the binding characteristics of reference compounds and novel compounds to the rat mGluR5. The A18 cell line expressing hmGluR5a (purchased from Euroscreen) was used to determine binding characteristics of the chemical compounds to the human mGluR5a receptor. As radioligand [3H]-M-MPEP (2 nM) was used. The nonspecific binding was determined in the presence of 10 μM M-MPEP.

T1 sequence (P23385 19-1199): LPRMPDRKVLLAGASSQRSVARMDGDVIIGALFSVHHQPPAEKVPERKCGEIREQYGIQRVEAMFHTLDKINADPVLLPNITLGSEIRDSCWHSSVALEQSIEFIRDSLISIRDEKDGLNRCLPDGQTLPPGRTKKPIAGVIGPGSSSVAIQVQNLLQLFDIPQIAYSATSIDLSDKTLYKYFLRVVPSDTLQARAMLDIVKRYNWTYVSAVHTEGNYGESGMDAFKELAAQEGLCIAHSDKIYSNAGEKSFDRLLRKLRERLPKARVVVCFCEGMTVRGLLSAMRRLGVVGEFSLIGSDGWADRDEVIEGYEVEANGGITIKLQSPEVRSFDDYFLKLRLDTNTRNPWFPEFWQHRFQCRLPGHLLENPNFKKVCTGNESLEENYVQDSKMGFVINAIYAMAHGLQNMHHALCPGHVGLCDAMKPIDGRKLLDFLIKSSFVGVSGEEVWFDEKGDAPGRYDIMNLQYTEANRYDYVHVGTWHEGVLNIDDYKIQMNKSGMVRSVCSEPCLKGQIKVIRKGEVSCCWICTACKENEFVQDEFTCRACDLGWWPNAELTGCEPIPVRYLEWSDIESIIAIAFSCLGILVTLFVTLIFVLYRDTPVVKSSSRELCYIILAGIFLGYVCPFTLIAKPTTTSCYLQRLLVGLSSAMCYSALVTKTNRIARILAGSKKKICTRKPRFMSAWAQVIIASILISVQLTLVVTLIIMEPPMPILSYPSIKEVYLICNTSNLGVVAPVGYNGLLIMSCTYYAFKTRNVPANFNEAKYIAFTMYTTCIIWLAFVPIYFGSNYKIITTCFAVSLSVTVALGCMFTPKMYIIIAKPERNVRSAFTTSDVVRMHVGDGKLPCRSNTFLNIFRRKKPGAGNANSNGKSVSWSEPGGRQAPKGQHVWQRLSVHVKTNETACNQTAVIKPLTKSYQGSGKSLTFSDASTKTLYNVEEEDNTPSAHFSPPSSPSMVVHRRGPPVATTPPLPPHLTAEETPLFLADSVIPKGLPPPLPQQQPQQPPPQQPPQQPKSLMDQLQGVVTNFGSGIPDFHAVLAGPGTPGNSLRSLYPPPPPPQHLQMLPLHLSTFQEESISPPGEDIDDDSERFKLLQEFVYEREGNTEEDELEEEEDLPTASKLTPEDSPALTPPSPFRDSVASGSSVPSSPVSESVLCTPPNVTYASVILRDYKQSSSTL

What is called Ki is a dissociation constant, usually derived from enzyme kinetics or from competition with a known ligand. In the case of `Nc1cnc2sc(S(=O)(=O)c3ccc(Cl)cc3)c(-c3ccc(Cl)cc3)c2c1` [Compound 79, 2-(4-Chloro-benzenesulfonyl)-3-(4-chloro-phenyl)-thieno[2,3-b]pyridin-5-ylamine], the Ki on rat mGluR1 and at mGluR5 was less than 500 nM throughout.
Regarding `Cc1noc(C)c1S(=O)(=O)c1sc2ncccc2c1-c1ccc(Cl)cc1` [Compound 14], the Ki on rat mGluR1 and at mGluR5 was greater than 1500 nM each time.
Regarding `O=S(=O)(Nc1ccc(Cl)cc1)c1sc2ncccc2c1-c1ccc(Cl)cc1` [Compound 15, 3-(4-Chlorophenyl)-thieno[2,3-b]pyridine-2-sulfonic acid (4-chloro-phenyl)-amide], the Ki on rat mGluR1 is greater than 1500 nM; on mGluR5, 500 to 1500 nM.
On to `O=S(=O)(NCc1ccc(Cl)cc1)c1sc2ncccc2c1-c1ccc(Cl)cc1` [Compound 21, 3-(4-Chlorophenyl)-thieno[2,3-b]pyridine-2-sulfonic acid 4-chloro-benzylamide], for which the Ki on rat mGluR1 and on mGluR5 was greater than 1500 nM throughout.
On to `O=S(=O)(c1ccccc1)c1sc2ncccc2c1-c1ccc(Cl)cc1` [Compound 8], for which the Ki is greater than 1500 nM on rat mGluR1 and less than 500 nM on mGluR5.
As to `O=S(=O)(c1cccc(Cl)c1)c1sc2ncccc2c1-c1ccc(Cl)cc1` [Compound 19], the figures for the Ki on rat mGluR1 and on mGluR5 were greater than 1500 nM and less than 500 nM, respectively.
With `Cc1ccc(-c2c(S(=O)(=O)c3cccc(C#N)c3)sc3ncccc23)cc1` [Compound 59], the Ki on rat mGluR1 and on mGluR5 was less than 500 nM throughout.
With `O=S(=O)(Cc1ccccc1)c1sc2ncccc2c1-c1ccc(Cl)cc1` [Compound 17], the Ki is greater than 1500 nM on rat mGluR1 and 500 to 1500 nM at mGluR5.
In the case of `Cc1ccc(S(=O)(=O)c2sc3ncccc3c2-c2ccc(F)cc2)cc1F` [Compound 82], the Ki at rat mGluR1 was greater than 1500 nM; at mGluR5, less than 500 nM.
Turning to `O=S(=O)(c1sc2ncccc2c1-c1ccc(Cl)cc1)C1CCCCC1` [Compound 16], the Ki at rat mGluR1 and at mGluR5 was greater than 1500 nM throughout.
With `O=S(=O)(c1cccnc1)c1sc2ncccc2c1-c1ccc(Cl)cc1` [Compound 10], the Ki at rat mGluR1 is greater than 1500 nM; on mGluR5, less than 500 nM.
For the molecule `CCCCS(=O)(=O)c1sc2ncccc2c1-c1ccc(Cl)cc1` [Compound 11], the Ki was greater than 1500 nM at rat mGluR1 and 500 to 1500 nM at mGluR5.
For `COc1cccc(-c2c(S(=O)(=O)c3cccc(C#N)c3)sc3ncccc23)c1` [Compound 67], the Ki at rat mGluR1 and on mGluR5 was less than 500 nM in each case.
Turning to `O=S(=O)(c1ccc(F)cc1)c1sc2ncccc2c1-c1ccc(Cl)cc1` [Compound 3], the Ki was greater than 1500 nM on rat mGluR1 and less than 500 nM on mGluR5.
As to `Cc1ccc(S(=O)(=O)c2sc3nc(F)ccc3c2-c2ccc(Cl)cc2)cc1F` [Compound 89], the Ki was greater than 1500 nM at rat mGluR1 and less than 500 nM at mGluR5.
Consider `Cc1ccc(-c2c(S(=O)(=O)c3ccc(Cl)cc3)sc3ncccc23)cc1` [Compound 35], for which the Ki on rat mGluR1 was greater than 1500 nM; at mGluR5, less than 500 nM.
On to `O=S(=O)(c1ccc(Cl)cc1)c1sc2ncccc2c1-c1ccc(Cl)cc1` [Compound 1, 2-(4-Chloro-benzenesulfonyl)-3-(4-chloro-phenyl)-thieno[2,3-b]pyridine], for which the Ki on rat mGluR1 is greater than 1500 nM; at mGluR5 it was less than 500 nM.
Taken in the same sequence, the figures for `O=S(=O)(c1cccs1)c1sc2ncccc2c1-c1ccc(Cl)cc1` [Compound 13] were greater than 1500 nM and 500 to 1500 nM.
Turning to `Cc1ccc(S(=O)(=O)c2sc3ncccc3c2-c2ccc(Cl)cc2)cc1` [Compound 4], the results for the Ki on rat mGluR1 and at mGluR5 were 500 to 1500 nM and less than 500 nM, respectively.
Turning to `O=S(=O)(c1ccc(-c2ccccc2)cc1)c1sc2ncccc2c1-c1ccc(Cl)cc1` [Compound 18], the Ki on rat mGluR1 and at mGluR5 was greater than 1500 nM throughout.
On to `CC(=O)Nc1ccc(S(=O)(=O)c2sc3ncccc3c2-c2ccc(Cl)cc2)cc1` [Compound 5], for which the Ki on rat mGluR1 and at mGluR5 was greater than 1500 nM in each case.
As for `N#Cc1cc(F)cc(S(=O)(=O)c2sc3ncccc3c2-c2ccc(Cl)cc2)c1` [Compound 40], the Ki at rat mGluR1 was 500 to 1500 nM; on mGluR5, less than 500 nM.
Regarding `O=S(=O)(c1ccc(Cl)cc1Cl)c1sc2ncccc2c1-c1ccc(Cl)cc1` [Compound 33], the Ki was greater than 1500 nM at rat mGluR1 and 500 to 1500 nM on mGluR5.
As to `N#Cc1cccc(S(=O)(=O)c2sc3ncccc3c2-c2cccc(Cl)c2)c1` [Compound 38], the Ki on rat mGluR1 and on mGluR5 was less than 500 nM throughout.
For `N#Cc1ccc(S(=O)(=O)c2sc3ncccc3c2-c2ccc(Cl)cc2)cc1` [Compound 7], the Ki on rat mGluR1 is greater than 1500 nM; on mGluR5 it was less than 500 nM.
